Experimental data: patent publication US9289411B2, “Anti-HCV agent” (NATIONAL UNIVERSITY CORPORATION OKAYAMA UNIVERSITY, priority 2011, dated 2016)

Legend:
[1] = Cytotoxic effect summarized over cells derived from various HCV strains (WST-1); type: cell-based; conditions: human; seven full-length HCV-RNA-replicating cell lines; read-out: CC50 values, range over all cells
From the text: (§2) Assay systems using OR6 cells (HCV-O strain), 1B-4R cells (HCV-1B-4 strain), and AH1R cells (HCV-AH1R strain) as HuH-7 cell-derived full-length HCV-RNA-replicating cells, and ORL8 cells (HCV-O strain), ORL11 cells (HCV-O strain), 1B-4RL cells (HCV-1B-4 strain), and KAH5RL cells (HCV-KAH5 strain) as Li23 cell-derived full-length HCV-RNA-replicating cells were used for the quantitative analysis of anti-HCV activity and evaluation of a cytotoxic effect in the present invention. […] In addition, all the HCV strains belong to genotype 1b.

ORL8 cells = experiment: Cytotoxic effect, WST-1 cell proliferation assay in ORL8 cells; conditions: ORL8 cells
From the text: Assay systems using OR6 cells (HCV-O strain), 1B-4R cells (HCV-1B-4 strain), and AH1R cells (HCV-AH1R strain) as HuH-7 cell-derived full-length HCV-RNA-replicating cells, and ORL8 cells (HCV-O strain), ORL11 cells (HCV-O strain), 1B-4RL cells (HCV-1B-4 strain), and KAH5RL cells (HCV-KAH5 strain) as Li23 cell-derived full-length HCV-RNA-replicating cells were used for the quantitative analysis of anti-HCV activity and evaluation of a cytotoxic effect in the present invention. The three cell lines, i.e., the 1B-4R cells, the 1B-4RL cells, and the KAH5RL cells have been disclosed in WO 2010/026965 A1. The AH1R cells may be produced with reference to Mori K et al., BBRC, 371:104-109, 2008 and WO 2010/026965 A1. In addition, all the HCV strains belong to genotype 1b.
In the measurement of the renilla luciferase activity and the measurement by the WST-1 method, experiments were performed in three wells independent of each other, and their means and standard deviation were calculated.
The cytotoxic effects of N-89 and N-251 were examined using ORL8 cells and the CC50 values were calculated. An experimental scale and schedule are the same as those in Example 1.
N-89 and N-251 were added so as to achieve concentrations of 5 μM, a 2-fold dilution series from 5 μM (2.5, 1.3, 0.63, 0.31, 0.16, and 0.08 μM), and 0. The WST-1 cell proliferation assay was performed 72 hours after the culture.
The cytotoxic effect of artemisinin was examined using OR6 and ORL8 cells and the CC50 values were calculated. An experimental scale and schedule are the same as those in Example 1. Artemisinin was added so as to achieve concentrations of 400 μM, a 2-fold dilution series from 400 μM (200, 100, 50, 25, and 13 μM), and 0. The WST-1 cell proliferation assay was performed 72 hours after the culture.

[2] = system: HCV-RNA replication in 1B-4RL cells (HCV-1B-4 strain, Li23-derived); experiment: microbe, parasite or virus in culture; type: cell-based, HCV genotype 1b; conditions: for EC50: Hepatitis C virus, 72 hours, renilla luciferase activity
Procedure: For N-251, the results at concentrations of up to 1.3 μM are shown.

[3] = system: HCV-RNA replication in 1B-4R cells (HCV-1B-4 strain, HuH-7-derived); experiment: microbe, parasite or virus in culture; type: cell-based, HCV genotype 1b; conditions: for EC50: Hepatitis C virus, 72 hours, renilla luciferase activity
From the text: as §2
As necessary, an increase or decrease in expression level of an HCV protein (core protein) was examined by a Western blot method.
The luciferase activities were measured 72 hours after the culture.

[4] = system: HCV-RNA replication in ORL11 cells (HCV-O strain, Li23-derived); experiment: microbe, parasite or virus in culture; type: cell-based, HCV genotype 1b; conditions: for EC50: Hepatitis C virus, 72 hours, renilla luciferase activity
Procedure: N-89 was added so as to achieve concentrations of 500 nM, a 2-fold dilution series from 500 nM (250, 125, 63, 31, 16, and 8 nM), and 0. The luciferase activities were measured 72 hours after the culture.
N-251 was added so as to achieve concentrations of 1 μM, a 2-fold dilution series from 1 μM (500, 250, 125, 63, 31, and 16 nM), and 0. The luciferase activities were measured 72 hours after the culture.

renilla luciferase = experiment: Influence on renilla luciferase activity in lysate of ORL8 cells; type: biochemical; conditions: ORL8 cell lysate, concentrations of up to 20 μM
Procedure: In the ORL8 cells, the anti-HCV activity is evaluated by measuring the activity of renilla luciferase as a product of an exogenous gene introduced so as to be linked to HCV RNA.
Thus, N-89 or N-251 was added (5 μL) to a lysate (10 μL) of the ORL8 cells (1×10^5 cells, medium for Li23 cell line) so as to achieve final concentrations of 0, 5, 10, and 20 μM, and 50 μL of a substrate were further added thereto. Then, the luciferase activity was measured.
An actual luciferase activity value (RL activity value) at 100% on the ordinate axis was 2.2×10^5 in the case of N-89 and 2.8×10^5 in the case of N-251.

[5] = system: HCV core protein in ORL8 cells; experiment: Western blot analysis of HCV core protein expression in ORL8 cells; type: cell-based, HCV genotype 1b; conditions: 72 hours, 0.078-5 μM
Procedure: (§1) N-89 and N-251 were diluted with DMSO. Sampling was performed with 100 μL of 2×SDS buffer 72 hours after the culture. 10 μL of a sample were applied to SDS-PAGE electrophoresis and subjected to Western blot analysis using an anti-HCV core antibody and an anti-β-actin antibody according to a conventional method. It should be noted that for the detection of β-actin, a sample diluted 10-fold with 2×SDS buffer in advance was used.

[6] = system: HCV-RNA replication in KAH5RL cells (HCV-KAH5 strain, Li23-derived); experiment: microbe, parasite or virus in culture; type: cell-based, HCV genotype 1b; conditions: for EC50: Hepatitis C virus, 72 hours, renilla luciferase activity
Procedure: N-89 was added so as to achieve concentrations of 10 μM, a 2-fold dilution series from 10 μM (5, 2.5, 1.3, 0.63, 0.31, and 0.16 μM), and 0. The luciferase activities were measured 72 hours after the culture.
N-251 was added so as to achieve concentrations of 5 μM, a 2-fold dilution series from 5 μM (2.5, 1.3, 0.63, 0.31, 0.16, and 0.08 μM), and 0. The luciferase activities were measured 72 hours after the culture.

[7] = system: HCV core protein in HCV-O/RLGE cells; experiment: Western blot analysis of HCV core protein in HCV-O/RLGE cells; type: cell-based; conditions: 72 hours, concentration region in which β-actin did not reduce
Procedure: HCV-O/RLGE cells (Ikeda et al., Liver Int 31:871-880, 2011) were plated onto a 6-well plate (5×10^4 cells in 3 mL of medium for HuH-7 cell line per well) and cultured. […] 72 hours after the culture, the cells were lysed with 100 μL of 2×SDS buffer to prepare a sample for Western blot analysis. The Western blot analysis using an antibody against an HCV core protein (CP11; Institute of Immunology, Tokyo) was performed according to a conventional method. β-Actin was detected with an anti-β-actin antibody (AC-15; Sigma-Aldrich) in a sample diluted 10-fold with 2×SDS buffer.

[8] = system: HCV core protein in OR6 cells; experiment: Western blot analysis of HCV core protein expression in OR6 cells; type: cell-based, HCV genotype 1b; conditions: 72 hours, N-89 0.31-20 μM, N-251 0.16-10 μM
Procedure: as §1, with “After 72 hours, sampling” for “Sampling”, “buffer.” for “buffer 72 hours after the culture.”, “For” for “It should be noted that for”, “used because the expression amount of β-actin was high.” for “used.”

SMILES | CC50 [1] | cytotoxicity at 1 μM (WST-1 assay) (ORL8 cells) | CC50 (ORL8 cells; 72 hours, WST-1) | SI (CC50/EC50) [2] | EC50 [2] | SI (CC50/EC50) [3] | EC50 [3] | SI (CC50/EC50) [4] | EC50 [4] | inhibition on the renilla luciferase activity (renilla luciferase) | level of the HCV core protein (Western blot) [5] | SI (CC50/EC50) [6] | EC50 [6] | amount of HCV core protein (Western blot) [7] | level of the HCV core protein (Western blot) [8]
OCCCCCCC1COOC2(CCCCCCCCCCC2)OOC1 [N-251, 6-(1,2,6,7-tetraoxaspiro[7,11]nonadec-4-yl)] | 490 to 3800 nM | not exhibiting cytotoxicity | 1300 nM | 8.3 | 230 nM | 3.9 | 980 nM | 19 | 59 nM | did not show any inhibition | reduced depending on the concentrations | 11 | 290 nM | clearly reduced | reduced depending on the concentrations
C1CCCCCC2(CCCCC1)OOCCCOO2 [N-89, 1,2,6,7-tetraoxaspiro[7,11]nonadecane] | 500 to 9300 nM | not exhibiting cytotoxicity | – | 20 | 120 nM | 22 | 420 nM | 12 | 45 nM | did not show any inhibition | reduced depending on the concentrations | 13 | 190 nM | clearly reduced | reduced depending on the concentrations
